Assay results reported in PMC10045663, “Synthesis, In Vitro Biological Evaluation of Antiproliferative and Neuroprotective Effects and In Silico Studies of Novel 16E-Arylidene-5α,6α-epoxyepiandrosterone Derivatives” (Biomedicines, 2023).
“Also recorded” adds a separate entry of the source.

What was measured:
[1] = test system: NHDF cells (normal human dermal fibroblasts); experiment: MTT cell proliferation assay, NHDF cells; assay type: cell-based; settings: 72 h, non-tumoral cells, read-out: Estimated IC50, NHDF
Method: (§1) LNCaP, PC-3, MCF-7, PNT1A, N27, and NHDF cells were obtained from the American Type Culture Collection (ATCC; Manassas, VA, USA) and were cultured in 75 cm^2 culture flasks at 37 °C in a humidified air incubator with 5% CO2. LNCaP, PC-3, PNT1A, and N27 cells, respectively, were cultured in RPMI 1640 medium (Sigma-Aldrich, Inc. St. Louis, MO, USA) with 10% fetal bovine serum (FBS; Sigma-Aldrich, Inc. St. Louis, MO, USA) and 1% of the antibiotic mixture of 10,000 U/mL penicillin G and […] streptomycin (Sp, Sigma-Aldrich, Inc. St. Louis, MO, USA). MCF-7 cells were cultured in DMEM medium (Sigma-Aldrich, Inc. St. Louis, MO, USA) supplemented with 10% fetal bovine serum (FBS; Sigma-Aldrich, Inc. St. Louis, MO, USA) and 1% antibiotic/antimycotic (10,000 U/mL penicillin G, […] streptomycin, and 25 µg/mL amphotericin B: Ab, Sigma-Aldrich, Inc. St. Louis, MO, USA). Finally, NHDF cells were cultured in RPMI 1640 medium supplemented with 10% FBS, 2 mM L-glutamine, 10 mM HEPES, 1 mM sodium pyruvate, and 1% of the antibiotic/antimycotic Ab, and these cells were used in passages 10th to 14th. For all cell types, the medium was renewed every 2 days until cells nearly reached the confluence state. When cells reach approximately 90–95% confluence, they are gently detached by trypsinization (trypsin-EDTA solution: 0.125 g/L of trypsin and 0.02 g/L of EDTA). Before each experiment, viable cells were counted in a Neubauer chamber by a trypan-blue exclusion assay and adequately diluted in the appropriate complete cell culture medium.
(§2) All tested compounds were dissolved in dimethyl sulfoxide (DMSO; Sigma-Aldrich, Inc. St. Louis, MO, USA) at a concentration of 10 mM and stored at 4 °C. From the mother-solutions, the diluted solutions of the compounds, in different concentrations, were prepared in the respective complete culture medium before each experiment.
(§3) After reaching a confluence state, cells were trypsinized and counted by the trypan-blue exclusion assay and then seeded with an initial density of 2 × 10^4 cells/mL in 96-well culture plates (Nunc, Apogent, Denmark) and left to adhere and grow for 48 h. Subsequently, the medium was removed, and the cells were treated with compound solutions (10 and 50 µM for preliminary studies and 0.01, 0.1, 1, 10, 50, and 100 µM for concentration-response studies) in complete culture medium for 72 h. 5-Fluorouracil (5-FU) was used as a positive control, and untreated cells were used as the negative control. Compounds leading to cell proliferation relative to control clearly below 50%, at 10 µM, or clearly below 25%, at 50 µM, in the screening studies were selected to concentration-response studies in tumoral cell lines. Each experiment was performed in quadruplicate and independently at least two times. The in vitro antiproliferative effects were evaluated by the MTT assay (Sigma-Aldrich, Inc. St. Louis, MO, USA). After the incubation period, the medium was removed, and 100 µL of phosphate buffer saline (PBS, NaCl 137 mM; KCl 2.7 mM; Na2HPO4 10 mM; and KH2PO4 1.8 mM in deionized water with a pH adjusted to 7.4) were used to wash the cells. Then, 100 µL of the MTT solution (5 mg/mL) was prepared in the appropriate serum-free medium and added to each well, followed by incubation for 4 h at 37 °C. Hereafter, the MTT containing medium was removed, and the formazan crystals were dissolved in DMSO. Then, the absorbance was measured at 570 nm using a xMarkTM microplate spectrophotometer from BIO-RAD Laboratories. Cell viability values were expressed as percentages relative to the negative control.

[2] = test system: PNT1A (normal prostate cells); experiment: MTT cell proliferation assay, PNT1A cells; assay type: cell-based; settings: 72 h, non-tumoral cells, read-out: Estimated IC50, PNT1A
Method: as §1, §2, §3

[3] = test system: N27 (rat dopaminergic neuronal cells); experiment: MTT cell proliferation assay, N27 cells; assay type: cell-based; settings: 72 h, non-tumoral cells, read-out: Estimated IC50, N27
Method: as §1, §2, §3

[4] = test system: MCF-7 cells (estrogen-responsive breast cancer cells); experiment: MTT cell proliferation assay, MCF-7 cells; assay type: cell-based; settings: MTT, 72 h, tumoral cells; read-out: Estimated IC50, MCF-7
Method: as §1, §2, §3

N27 cells [5] = experiment: N27 cell viability after 24 h (MTT), substance alone; assay type: cell-based, rat; settings: for effect on N27 cell viability: 10 µM alone; for fold-increase in cell viability compared to 10 µM of the respective compound / fold-increase in cell viability compared to the control: 50 µM alone
Method: The immortalized rat mesencephalic dopaminergic cell line (N27 cells; a kind gift from Dr. Yoon-Seong Kim, Burnett School of Biomedical Sciences, University of Central Florida) was grown in Roswell Park Memorial Institute (RPMI) 1640 medium (Sigma-Aldrich) containing 2 g/L sodium bicarbonate, 10% fetal bovine serum (FBS; Millipore), and 1 mL/L of penicillin/streptomycin (GIBCO) in a humidified atmosphere of 5% CO2 at 37 °C. Cells were plated at a density of 0.31 × 10^5 cells per cm^2 in 96-well culture plates. […] To assess cell viability, MTT reduction was performed as previously described (Section 2.3) with some modifications. Briefly, after 24 h of cell treatments, 0.5 mg/mL of MTT was added to cells for 4 h at 37 °C. Then, the resultant precipitate was dissolved in 10% SDS and quantified at a wavelength of 570 nm.

N27 cells [6] = experiment: Neuroprotection against 6-OHDA-induced toxicity (MTT); assay type: cell-based, rat; settings: 24 h; for protection against 6-OHDA-induced neurotoxicity: 10 and 50 µM together with 50 µM 6-OHDA
Method: The immortalized rat mesencephalic dopaminergic cell line (N27 cells; a kind gift from Dr. Yoon-Seong Kim, Burnett School of Biomedical Sciences, University of Central Florida) was grown in Roswell Park Memorial Institute (RPMI) 1640 medium (Sigma-Aldrich) containing 2 g/L sodium bicarbonate, 10% fetal bovine serum (FBS; Millipore), and 1 mL/L of penicillin/streptomycin (GIBCO) in a humidified atmosphere of 5% CO2 at 37 °C. Cells were plated at a density of 0.31 × 10^5 cells per cm^2 in 96-well culture plates. In the MTT assay, N27 cells were incubated in the presence of several compounds with 50 μM of 6-OHDA. To assess cell viability, MTT reduction was performed as previously described (Section 2.3) with some modifications. Briefly, after 24 h of cell treatments, 0.5 mg/mL of MTT was added to cells for 4 h at 37 °C. Then, the resultant precipitate was dissolved in 10% SDS and quantified at a wavelength of 570 nm.

[7] = test system: PC-3 cells (androgen-independent prostatic cancer); experiment: MTT cell proliferation assay, PC-3 cells; assay type: cell-based; settings: PC-3, 50 µM, 72 h
Method: as §1, §2, §3

[8] = test system: LNCaP cells (androgen-dependent prostatic cancer); experiment: MTT cell proliferation assay, LNCaP cells; assay type: cell-based; settings: 72 h
Method: as §1, §2, §3

[9] = test system: all cell lines (NHDF, PNT1A, N27, LNCaP, PC-3, MCF-7); experiment: MTT preliminary screening, all cell lines taken together; assay type: cell-based; settings: 50 µM, 72 h
Method: as §1, §2, §3

[10] = test system: T47-D cells (breast cancer); parameters: method as in PMID 23635011; settings: MTT assay, read-out: IC50 against T47-D cells; cited from earlier work

CC12CCC3C(CC4OC45CC(O)CCC35C)C1CC(=Cc1ccc([N+](=O)[O-])cc1)C2=O (stereo not drawn) [Compound 17, (E)-16-(4-Nitrobenzylidene)-3-hydroxy-5α ,6α -epoxy-10,13-dimethyl-1,3,4,7,8,9,10,11,12,13,15,16-dodecahydro-2H-cyclopenta[α ]phenanthren-17(14H)-one]
IC50 [1]: 32.3 µM | IC50 [2]: > 100 µM | IC50 [3]: > 100 µM | IC50 [4]: 20.8 µM | effect on N27 cell viability (N27 cells [5]): did not affect cell viability | fold-increase in cell viability compared to 10 µM of the respective compound (N27 cells [5]): 1.59 fold | fold-increase in cell viability compared to the control (N27 cells [5]): 1.53 fold | protection against 6-OHDA-induced neurotoxicity (N27 cells [6]): did not counteract; also recorded: no significant neuroprotection

C[C@]12CC[C@H]3[C@@H](C[C@@H]4O[C@@]45C[C@@H](O)CC[C@]35C)[C@@H]1C/C(=C\c1ccco1)C2=O [Compound 20, (E)-16-(Furan-2-ylmethylene)-3-hydroxy-5α ,6α -epoxy-10,13-dimethyl-1,3,4,7,8,9,10,11,12,13,15,16-dodecahydro-2H-cyclopenta[α ]phenanthren-17(14H)-one]
IC50 [1]: 50 µM | IC50 [2]: 56.6 µM | IC50 [3]: 64.5 µM | decrease on cell proliferation relative to the control [7]: higher than 75% | effect on N27 cell viability (N27 cells [5]): did not affect cell viability | protection against 6-OHDA-induced neurotoxicity (N27 cells [6]): did not counteract; also recorded: no significant neuroprotection

CC12CCC3C(CC4OC45CC(O)CCC35C)C1CC(=Cc1ccc(Cl)o1)C2=O (stereo not drawn) [Compound 27, (E)-16-[(5-Chlorofuran-2-yl)methylene]-3-hydroxy-5α ,6α -epoxy-10,13-dimethyl-1,3,4,7,8,9,10,11,12,13,15,16-dodecahydro-2H-cyclopenta[α ]phenanthren-17(14H)-one]
IC50 [1]: 18.4 µM | IC50 [2]: 19.5 µM | IC50 [3]: 42.4 µM | effect on LNCaP cell proliferation ([8]; LNCaP, 10 µM): no relevant effects | decrease in LNCaP cell proliferation ([8]; LNCaP, 50 µM): higher than 75% | IC50 ([8]; MTT, tumoral cells, read-out: Estimated IC50, LNCaP): 15.8 µM | IC50 [4]: 56.9 µM | relative cell proliferation [9]: ≤ 50% | effect on N27 cell viability (N27 cells [5]): did not affect cell viability | fold-increase in cell viability compared to 10 µM of the respective compound (N27 cells [5]): 1.41 fold | fold-increase in cell viability compared to the control (N27 cells [5]): 1.25 fold | fold-decrease in cell viability compared to 6-OHDA alone (N27 cells [6]; 50 µM together with 50 µM 6-OHDA): 0.9 fold | protection against 6-OHDA-induced neurotoxicity (N27 cells [6]): did not counteract; also recorded: no significant neuroprotection

CC12CCC3C(CC=C4CC(O)CCC43C)C1C/C(=C\c1ccc([N+](=O)[O-])cc1)C2=O (stereo not drawn) [Compound 4, (E)-16-(4-Nitrobenzylidene)-3-hydroxy-10,13-dimethyl-1,3,4,7,8,9,10,11,12,13,15,16-dodecahydro-2H-cyclopenta[α]phenanthren-17(14H)-one]
IC50 [10]: > 100 µM

CC12CCC3C(CC=C4CC(O)CCC43C)C1C/C(=C\c1ccc(Cl)cc1Cl)C2=O (stereo not drawn) [Compound 9, (E)-16-(2,4-Dichlorobenzylidene)-3-hydroxy-10,13-dimethyl-1,3,4,7,8,9,10,11,12,13,15,16-dodecahydro-2H-cyclopenta[α]phenanthren-17(14H)-one]
IC50 [10]: > 100 µM

CC12CCC3C(CC4OC45CC(O)CCC35C)C1CCC2C(=O)C=Cc1ccccc1 (stereo not drawn) [cD, 21E-benzylidene-5α,6α-epoxipregnenolone, reference compound]
effect on N27 cell viability (N27 cells [5]): did not affect cell viability | protection against 6-OHDA-induced neurotoxicity (N27 cells [6]): did not protect
